Measured values: patent US10828305B2 (SHANGHAI PHARMACEUTICALS HOLDING CO., LTD., priority 2016, dated 2020)

Assays:
[1] = target: ErbB2 kinase (Homo sapiens, UniProt P04626); experiment: Enzymatic experiment on ErbB2 (HTRF kinEASE-TK); type: biochemical; conditions: ATP 4 μM; read-out: Kinase IC50 (nM) in vitro ErbB2
How it was run: (§1)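 HTRF kinEASE-TK with biotinylated TK substrate in HEPES pH 7.0 buffer containing MnCl2, MgCl2 and DTT; ErbB2 at 0.06 ng/μl with 4 μM ATP, EGFR at 0.06 units/μl with 1.65 μM ATP, 30 min at room temperature after 5 min enzyme/substrate–compound preincubation. Ten-point 3-fold dilutions; Eu antibody/SA-XL665 detection, 665/620 ratio.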

[2] = target: EGFR kinase (Homo sapiens, UniProt P00533); experiment: Enzymatic experiment on EGFR (HTRF kinEASE-TK); type: biochemical; conditions: ATP 1.65 μM; read-out: Kinase IC50 (nM) in vitro EGFR
EGFR kinase, sequence (P00533 25-1210): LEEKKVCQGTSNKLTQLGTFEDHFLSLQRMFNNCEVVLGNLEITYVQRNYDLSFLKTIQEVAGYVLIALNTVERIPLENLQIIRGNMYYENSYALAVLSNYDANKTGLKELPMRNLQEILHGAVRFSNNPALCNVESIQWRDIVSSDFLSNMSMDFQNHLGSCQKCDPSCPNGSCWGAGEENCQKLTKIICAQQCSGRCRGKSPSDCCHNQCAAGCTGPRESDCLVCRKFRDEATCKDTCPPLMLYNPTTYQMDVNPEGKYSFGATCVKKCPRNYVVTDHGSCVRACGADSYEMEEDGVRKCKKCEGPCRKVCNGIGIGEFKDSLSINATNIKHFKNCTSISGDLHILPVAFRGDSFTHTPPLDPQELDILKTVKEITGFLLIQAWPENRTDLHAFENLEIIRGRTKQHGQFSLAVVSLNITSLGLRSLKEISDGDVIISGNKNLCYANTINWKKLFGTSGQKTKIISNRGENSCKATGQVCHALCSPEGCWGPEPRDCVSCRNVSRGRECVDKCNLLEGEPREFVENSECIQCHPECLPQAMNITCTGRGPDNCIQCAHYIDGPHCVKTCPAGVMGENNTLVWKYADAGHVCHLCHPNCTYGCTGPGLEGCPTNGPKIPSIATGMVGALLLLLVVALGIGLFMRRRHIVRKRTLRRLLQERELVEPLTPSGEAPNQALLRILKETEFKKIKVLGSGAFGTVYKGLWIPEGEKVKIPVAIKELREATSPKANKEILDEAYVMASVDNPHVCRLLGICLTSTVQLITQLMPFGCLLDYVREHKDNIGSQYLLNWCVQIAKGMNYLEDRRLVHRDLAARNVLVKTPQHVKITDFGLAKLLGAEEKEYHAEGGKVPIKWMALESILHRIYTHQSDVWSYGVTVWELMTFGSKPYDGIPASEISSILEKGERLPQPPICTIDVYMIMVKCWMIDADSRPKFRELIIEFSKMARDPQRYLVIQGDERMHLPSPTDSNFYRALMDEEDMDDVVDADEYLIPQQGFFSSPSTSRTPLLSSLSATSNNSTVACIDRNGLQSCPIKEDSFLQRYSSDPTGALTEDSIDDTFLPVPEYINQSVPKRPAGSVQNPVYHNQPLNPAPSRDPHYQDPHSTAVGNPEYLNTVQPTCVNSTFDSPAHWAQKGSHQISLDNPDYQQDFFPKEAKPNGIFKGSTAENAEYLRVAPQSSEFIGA
How it was run: as §1

[3] = tested on: N87; experiment: Proliferation inhibition assay in vitro, N87 (CellTiter-Glo); type: cell-based; conditions: Homo sapiens; 72 hours; read-out: IC50(nM) cell N87
How it was run: (§2)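 Cells were seeded at 8.8×10^4 cells/mL for BT-474 or 6.6×10^4 cells/mL for N87 and grown overnight. Compound was added at 9 concentrations in duplicate for 72 h at 37 °C, 5% CO2. Viability was measured by CellTiter-Glo.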

[4] = tested on: BT-474; experiment: Proliferation inhibition assay in vitro, BT-474 (CellTiter-Glo); type: cell-based; conditions: Homo sapiens, 72 hours, read-out: IC50(nM) cell BT-474
How it was run: as §2

ErbB2 kinase, sequence (P04626 23-1255): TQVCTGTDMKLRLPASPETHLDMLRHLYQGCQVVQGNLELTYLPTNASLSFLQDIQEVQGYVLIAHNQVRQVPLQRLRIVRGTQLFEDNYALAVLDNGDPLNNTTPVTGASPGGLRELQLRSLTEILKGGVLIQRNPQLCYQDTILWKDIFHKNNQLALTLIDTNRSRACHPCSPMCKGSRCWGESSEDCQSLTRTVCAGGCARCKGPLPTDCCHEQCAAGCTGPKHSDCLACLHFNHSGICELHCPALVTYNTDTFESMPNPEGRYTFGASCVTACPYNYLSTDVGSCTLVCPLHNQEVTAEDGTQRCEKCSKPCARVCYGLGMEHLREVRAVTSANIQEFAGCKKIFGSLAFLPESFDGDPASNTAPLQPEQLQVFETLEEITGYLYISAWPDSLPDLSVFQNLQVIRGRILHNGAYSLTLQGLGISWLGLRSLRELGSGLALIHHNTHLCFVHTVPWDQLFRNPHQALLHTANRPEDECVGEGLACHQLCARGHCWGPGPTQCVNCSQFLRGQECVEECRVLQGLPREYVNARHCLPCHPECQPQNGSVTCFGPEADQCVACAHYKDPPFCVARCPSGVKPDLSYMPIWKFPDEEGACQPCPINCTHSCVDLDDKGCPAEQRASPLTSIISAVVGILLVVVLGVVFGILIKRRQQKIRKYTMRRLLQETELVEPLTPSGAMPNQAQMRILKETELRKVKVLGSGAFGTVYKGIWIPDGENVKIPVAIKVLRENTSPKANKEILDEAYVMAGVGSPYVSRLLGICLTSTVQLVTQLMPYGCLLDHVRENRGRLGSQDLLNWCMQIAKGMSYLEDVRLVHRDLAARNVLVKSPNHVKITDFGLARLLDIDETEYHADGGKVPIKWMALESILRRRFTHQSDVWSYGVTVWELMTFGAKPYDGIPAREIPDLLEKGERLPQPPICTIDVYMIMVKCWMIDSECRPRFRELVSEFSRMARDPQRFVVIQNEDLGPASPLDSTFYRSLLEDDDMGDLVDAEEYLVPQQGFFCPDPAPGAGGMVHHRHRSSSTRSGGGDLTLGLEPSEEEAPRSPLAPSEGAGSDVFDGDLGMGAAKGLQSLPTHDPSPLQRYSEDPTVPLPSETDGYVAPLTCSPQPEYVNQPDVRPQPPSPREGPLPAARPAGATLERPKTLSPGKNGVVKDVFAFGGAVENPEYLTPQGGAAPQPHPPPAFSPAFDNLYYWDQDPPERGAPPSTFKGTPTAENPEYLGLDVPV

Q: How did the IC50 [1] turn out when `Cc1cc(Nc2ncnc3ccc(NC4=NC(C)(C)CO4)cc23)ccc1Oc1cc2nncn2cn1` [Embodiment 4, N^4-(4-([1,2,4]triazolo[4,3-c]pyrimidin-7-yloxy)-3-methylphenyl)-N^6-(4,4-dimethyl-4,5-dihydrooxazol-2-yl)quinazoline-4,6-diamine] was run?
A: 2.4 nM

Q: And the IC50 [2]?
A: 44.3 nM

Q: What about the IC50 [3] of the same compound?
A: 23 nM

Q: What about the IC50 [4] of the same compound?
A: 19.7 nM
